Laboratory results published in the NIST ThermoML archive (doi:10.1007/s10765-007-0223-x).

Assay: xn = mol fraction of the nth substance listed
Details: 101 kPa, Liquid; for speed of sound: Single path-length method

COC(C)(C)C [2-methoxy-2-methylpropane] + Cc1ccccc1
Details | mass density [kg/m3] | speed of sound [m/s]
288.15 K, x1 = 0.053 | 864.558 | 1332.9
288.15 K, x1 = 0.116 | 856.488 | 1315.9
288.15 K, x1 = 0.199 | 845.884 | 1295.2
288.15 K, x1 = 0.301 | 832.848 | 1268.1
288.15 K, x1 = 0.371 | 824.068 | 1249.5
288.15 K, x1 = 0.463 | 812.346 | 1225.8
288.15 K, x1 = 0.61 | 793.998 | 1186.3
288.15 K, x1 = 0.688 | 784.329 | 1166
288.15 K, x1 = 0.797 | 770.803 | 1137.3
288.15 K, x1 = 0.902 | 757.81 | 1108.5
288.15 K, x1 = 0.943 | 752.561 | 1097.5
288.15 K, x1 = 1 | 744.861 | 1083.4
290.65 K, x1 = 0.053 | 862.236 | 1321.9
290.65 K, x1 = 0.116 | 854.153 | 1304.8
290.65 K, x1 = 0.199 | 843.533 | 1284.2
290.65 K, x1 = 0.301 | 830.472 | 1257.4
290.65 K, x1 = 0.371 | 821.675 | 1238.5
290.65 K, x1 = 0.463 | 809.929 | 1215
290.65 K, x1 = 0.61 | 791.542 | 1175.6
290.65 K, x1 = 0.688 | 781.848 | 1155
290.65 K, x1 = 0.797 | 768.289 | 1126.6
290.65 K, x1 = 0.902 | 755.262 | 1098.2
290.65 K, x1 = 0.943 | 750 | 1086.8
290.65 K, x1 = 1 | 742.259 | 1071.6
293.15 K, x1 = 0.053 | 859.905 | 1310.9
293.15 K, x1 = 0.116 | 851.805 | 1293.8
293.15 K, x1 = 0.199 | 841.167 | 1273.2
293.15 K, x1 = 0.301 | 828.083 | 1246.4
293.15 K, x1 = 0.371 | 819.27 | 1227.5
293.15 K, x1 = 0.463 | 807.497 | 1203.9
293.15 K, x1 = 0.61 | 789.068 | 1164.7
293.15 K, x1 = 0.688 | 779.352 | 1143.9
293.15 K, x1 = 0.797 | 765.757 | 1115.7
293.15 K, x1 = 0.902 | 752.693 | 1087.4
293.15 K, x1 = 0.943 | 747.415 | 1075.9
293.15 K, x1 = 1 | 739.654 | 1060
295.65 K, x1 = 0.053 | 857.569 | 1299.9
295.65 K, x1 = 0.116 | 849.458 | 1282.8
295.65 K, x1 = 0.199 | 838.799 | 1262.2
295.65 K, x1 = 0.301 | 825.688 | 1235.4
295.65 K, x1 = 0.371 | 816.857 | 1216.5
295.65 K, x1 = 0.463 | 805.058 | 1193
295.65 K, x1 = 0.61 | 786.587 | 1153.6
295.65 K, x1 = 0.688 | 776.847 | 1132.8
295.65 K, x1 = 0.797 | 763.216 | 1104.9
295.65 K, x1 = 0.902 | 750.116 | 1076.7
295.65 K, x1 = 0.943 | 744.822 | 1064.8
295.65 K, x1 = 1 | 737.036 | 1048.5
298.15 K, x1 = 0.053 | 855.229 | 1288.9
298.15 K, x1 = 0.116 | 847.105 | 1271.8
298.15 K, x1 = 0.199 | 836.426 | 1251.2
298.15 K, x1 = 0.301 | 823.289 | 1224.5
298.15 K, x1 = 0.371 | 814.439 | 1205.5
298.15 K, x1 = 0.463 | 802.616 | 1181.8
298.15 K, x1 = 0.61 | 784.1 | 1142.6
298.15 K, x1 = 0.688 | 774.335 | 1122
298.15 K, x1 = 0.797 | 760.667 | 1093.8
298.15 K, x1 = 0.902 | 747.528 | 1065.7
298.15 K, x1 = 0.943 | 742.221 | 1053.5
298.15 K, x1 = 1 | 734.406 | 1036.9
300.65 K, x1 = 0.053 | 852.886 | 1278.1
300.65 K, x1 = 0.116 | 844.749 | 1260.8
300.65 K, x1 = 0.199 | 834.049 | 1240.2
300.65 K, x1 = 0.301 | 820.886 | 1213.6
300.65 K, x1 = 0.371 | 812.02 | 1194.5
300.65 K, x1 = 0.463 | 800.168 | 1170.8
300.65 K, x1 = 0.61 | 781.607 | 1131.6
300.65 K, x1 = 0.688 | 771.814 | 1111.4
300.65 K, x1 = 0.797 | 758.108 | 1082.6
300.65 K, x1 = 0.902 | 744.931 | 1054.4
300.65 K, x1 = 0.943 | 739.606 | 1042.1
300.65 K, x1 = 1 | 731.766 | 1025.4
303.15 K, x1 = 0.053 | 850.544 | 1267.3
303.15 K, x1 = 0.116 | 842.388 | 1250
303.15 K, x1 = 0.199 | 831.668 | 1229.3
303.15 K, x1 = 0.301 | 818.477 | 1202.6
303.15 K, x1 = 0.371 | 809.592 | 1183.6
303.15 K, x1 = 0.463 | 797.712 | 1159.8
303.15 K, x1 = 0.61 | 779.104 | 1120.6
303.15 K, x1 = 0.688 | 769.287 | 1100.2
303.15 K, x1 = 0.797 | 755.539 | 1071.4
303.15 K, x1 = 0.902 | 742.321 | 1043.1
303.15 K, x1 = 0.943 | 736.98 | 1030.7
303.15 K, x1 = 1 | 729.112 | 1013.9
305.65 K, x1 = 0.053 | – | 1256.5
305.65 K, x1 = 0.116 | – | 1239.1
305.65 K, x1 = 0.199 | – | 1218.4
305.65 K, x1 = 0.301 | – | 1191.7
305.65 K, x1 = 0.371 | – | 1172.6
305.65 K, x1 = 0.463 | – | 1148.8
305.65 K, x1 = 0.61 | – | 1109.7
305.65 K, x1 = 0.688 | – | 1089
305.65 K, x1 = 0.797 | – | 1060.2
305.65 K, x1 = 0.902 | – | 1031.7
305.65 K, x1 = 0.943 | – | 1019.3
305.65 K, x1 = 1 | – | 1002.4
